According to ChEMBL document CHEMBL1148657, “Diels-Alder/thiol-olefin co-oxygenation approach to antimalarials incorporating the 2,3-dioxabicyclo[3.3.1]nonane pharmacophore” (Bioorg Med Chem Lett, 2006):

Experiments:
Plasmodium falciparum [1] = assay: Antimalarial activity against chloroquine-resistant Plasmodium falciparum K1; type: functional, organism-based
Plasmodium falciparum [2] = assay: Antimalarial activity against Plasmodium falciparum NF54; type: functional, organism-based

Row | Structure (SMILES) | IC50 (Plasmodium falciparum [1]; Plasmodium falciparum, K1) [µM] | IC50 (Plasmodium falciparum [2]) [µM] | IC50 (Plasmodium falciparum [1]) [µM]
1 | CC1(O)CCC2CC1OO[C@@]2(CSc1ccccc1)c1ccccc1 (stereo partly drawn) | 0.081 |  | 
2 | CC1(OCc2ccccc2)CCC2CC1OO[C@@]2(C)CS(=O)(=O)c1ccccc1 (stereo partly drawn) |  | 0.0065 | 
3 | C[C@@H]1C(=O)C[C@H]2C[C@@H]1OO[C@@]2(C)/C=C\c1ccc(C(F)(F)F)cc1C(F)(F)F [ARTEFLENE] | 0.076 |  | 
4 | CC1(O)CCC2CC1OO[C@]2(CSc1ccccc1)c1ccccc1 (stereo partly drawn) | 0.298 |  | 
5 | CC1(O)CCC2CC1OO[C@]2(CSc1ccc(Cl)cc1)c1ccccc1 (stereo partly drawn) | 0.247 |  | 
6 | CC1(O)CCC2CC1OO[C@@]2(CS(=O)(=O)c1ccc(Cl)cc1)c1ccccc1 (stereo partly drawn) | 0.107 |  | 
7 | CC(=O)OC1(C)CCC2CC1OO[C@@]2(CS(=O)(=O)c1ccccc1)c1ccccc1 (stereo partly drawn) | 0.042 |  | 
8 | CC(=O)OC1(C)CCC2CC1OO[C@]2(CSc1ccccc1)c1ccccc1 (stereo partly drawn) | 0.164 |  | 
9 | C[C@@H]1CC[C@H]2[C@@H](C)C(=O)O[C@@H]3O[C@@]4(C)CC[C@@H]1[C@]32OO4 [ARTEMISININ] |  | 0.0089 | 
10 | CC1(O)CCC2CC1OO[C@@]2(CS(=O)(=O)c1ccccc1)c1ccccc1 (stereo partly drawn) | 0.092 |  | 
11 | CC1(O)CCC2CC1OO[C@]2(CS(=O)(=O)c1ccc(Cl)cc1)c1ccccc1 (stereo partly drawn) | 0.225 |  | 
12 | CC(=O)OC1(C)CCC2CC1OO[C@]2(CS(=O)(=O)c1ccccc1)c1ccccc1 (stereo partly drawn) | 0.072 |  | 
13 | CC1(O)CCC2CC1OO[C@]2(CS(=O)(=O)c1ccccc1)c1ccccc1 (stereo partly drawn) | 0.23 |  | 
14 | CC1(O)CCC2CC1OO[C@@]2(CSc1ccc(Cl)cc1)c1ccccc1 (stereo partly drawn) | 0.541 |  | 
15 | O=C(CS(=O)(=O)c1ccccc1)c1ccccc1 | 1 |  | 
16 | CC(=O)OC1(C)CCC2CC1OO[C@]2(/C=C\c1ccccc1)c1ccccc1 (stereo partly drawn) | 0.034 |  | 0.023
17 | CC(=O)OC1(C)CCC2CC1OO[C@@]2(CSc1ccccc1)c1ccccc1 (stereo partly drawn) | 0.124 |  | 
